Key:
Assay type in all cases: ADME, organism-based
Conditions in all cases: in vivo
[1] = Oral bioavailability in Wistar Han rat at 3 mg/kg measured after 24 hours by UPLC-MS/MS analysis
[2] = Half life in Wistar Han rat at 3 mg/kg, po measured after 24 hours by UPLC-MS/MS analysis
[3] = Cmax in Wistar Han rat at 3 mg/kg, po measured after 24 hours by UPLC-MS/MS analysis; set-up: route oral, dose 3 mg/kg, time 24 hrs
[4] = Tmax in Wistar Han rat at 3 mg/kg, po measured after 24 hours by UPLC-MS/MS analysis

bioavailability [1]	half-life [2]	Cmax [3]	Tmax [4]	Structure (SMILES)
65%	1.41 h	1700 ng/mL	1 h	CC#C[C@@H](CC(=O)O)c1ccc(OCC(C)=C(C)C)cc1
36%	2.9 h	1830 ng/mL	2 h	Cc1cc(OCCCS(C)(=O)=O)cc(C)c1-c1cccc(COc2ccc3c(c2)OC[C@H]3CC(=O)O)c1

Reference: ChEMBL document CHEMBL5036343, “Discovery and development of CPL207280 as new GPR40/FFA1 agonist” (Eur J Med Chem, 2021)
